Entries after “also recorded” stand apart in the source; their conditions may differ. Like-named read-outs stand apart in the source and are kept apart here. No end group written: not given here.
T1: ZO1 PDZ2 (Homo sapiens, UniProt Q07157)
T1 construct: ZO-1-2 (PDZ2; residues 184–264); His tag (N); made in house; host or cells: E. coli BL21 Star (DE3)
T1 sequence (Q07157 184-264): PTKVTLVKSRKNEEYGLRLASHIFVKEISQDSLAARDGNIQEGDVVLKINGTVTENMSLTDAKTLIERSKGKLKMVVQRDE

T2: MLLT4 PDZ (Homo sapiens, UniProt P55196)
T2 construct: MLLT4; P55196; 1002-1095; His-MBP (N, cleaved yes); made in house; host or cells: E. coli BL21 Star (DE3)
T2 sequence (P55196 1002-1095): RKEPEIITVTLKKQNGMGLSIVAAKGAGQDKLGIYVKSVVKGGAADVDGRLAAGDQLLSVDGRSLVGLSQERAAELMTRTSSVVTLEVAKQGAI

T3: LNX2 PDZ2 (Homo sapiens, UniProt Q8N448)
T3 construct: LNX2-2 (PDZ2; residues 334–426); His tag (N, cleaved yes); made in house; host or cells: E. coli BL21 Star (DE3)
T3 sequence (Q8N448 334-426): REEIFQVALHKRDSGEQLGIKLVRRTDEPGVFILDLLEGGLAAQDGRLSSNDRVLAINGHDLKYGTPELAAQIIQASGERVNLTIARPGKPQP

T4: MPP5 PDZ (Homo sapiens, UniProt Q8N3R9)
T4 construct: MPP5 (residues 238–336); GST (N, cleaved yes); made in house; host or cells: E. coli BL21 Star (DE3)
T4 sequence (Q8N3R9 238-336): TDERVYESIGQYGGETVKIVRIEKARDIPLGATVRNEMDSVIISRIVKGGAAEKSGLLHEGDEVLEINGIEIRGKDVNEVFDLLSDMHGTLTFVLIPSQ

T5: MLLT4 PDZ (human, UniProt P55196 1002-1095)
T5 construct: PDZ domain of human MLLT4 (Afadin); the residues named in the structure (1014-1022, 1071) fit 1002-1095; also called Afadin PDZ; not shown: His tag, N-terminal, cleaved; MBP, N-terminal, cleaved
T5 sequence (looked up): T2 sequence (P55196 1002-1095)

T6: MPP5 PDZ (human, UniProt Q8N3R9 238-336)
T6 construct: PDZ domain of human MPP5 (PALS1), residues 238-336, numbering of the full-length human protein; […]; Labelled on amines with RED-NHS dye for MST; also called PALS1 PDZ; not shown: GST, N-terminal, cleaved
T6 sequence (looked up): T4 sequence (Q8N3R9 238-336)

T7: LNX2 PDZ2 (human, UniProt Q8N448 334-426)
T7 construct: second PDZ domain of human LNX2, residues 334-426, numbering of the full-length human protein; […]; Labelled on amines with RED-NHS dye for MST; also called LNX2-2; not shown: His tag, N-terminal, cleaved
T7 sequence (looked up): T3 sequence (Q8N448 334-426)

T8: ZO-1 PDZ2 (human, UniProt Q07157 184-264)
T8 construct: second PDZ domain of human ZO-1 (TJP1), residues 184-264, numbering of the full-length human protein; […]; Labelled on amines with RED-NHS dye for MST; also called TJP1 PDZ2; ZO-1-2
T8 sequence (looked up): T1 sequence (Q07157 184-264)

B1: C-terminal SARS-CoV-2-E PBM P71L peptide of the beta variant (peptide)
peptide: NLNSSRVLDLLV
notes: also called P71L PBM peptide; SARS-CoV-2 P71L

Columns and labels:
[1] = molecular target: T1, ZO1 PDZ2; assay: Microscale thermophoresis, E PBM peptide vs ZO1 PDZ2; format: binding
[2] = molecular target: T9, PARD3 PDZ3 (Homo sapiens, UniProt Q8TEW0); assay: Microscale thermophoresis, E PBM peptide vs PARD3 PDZ3; format: binding; details: MST
T9 construct: PARDD3-3 (PDZ3; residues 582–685); His tag (N, cleaved yes); made in house; host or cells: E. coli BL21 Star (DE3)
T9 sequence (Q8TEW0 582-685): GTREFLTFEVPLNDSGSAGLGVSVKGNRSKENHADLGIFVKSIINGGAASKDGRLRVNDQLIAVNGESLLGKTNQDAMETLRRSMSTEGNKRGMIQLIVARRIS

[3] = molecular target: T2, MLLT4 PDZ; assay: Microscale thermophoresis, E PBM peptide vs MLLT4 PDZ; format: binding; details: MST
[4] = molecular target: T3, LNX2 PDZ2; assay: Microscale thermophoresis, E PBM peptide vs LNX2 PDZ2; format: binding
[5] = molecular target: T4, MPP5 PDZ; assay: Microscale thermophoresis, E PBM peptide vs MPP5 PDZ; format: binding
[6] = molecular target: T10, PARD3 PDZ3 (human, UniProt Q8TEW0 582-685); assay: MST; […]; PBS tween 20 0.05%; room temperature; […]; duplicate; details: both partners purified
T10 construct: third PDZ domain of human PARD3, residues 582-685, numbering of the full-length human protein; […]; Labelled on amines with RED-NHS dye for MST; also called PARDD3-3; not shown: His tag, N-terminal, cleaved
T10 sequence (Q8TEW0 582-685): as above

[7] = molecular target: T5, MLLT4 PDZ; assay: as above; details: both partners purified
[8] = molecular target: T6, MPP5 PDZ; assay: as above; details: both partners purified
[9] = molecular target: T7, LNX2 PDZ2; assay: as above; details: both partners purified
[10] = molecular target: T8, ZO-1 PDZ2; assay: as above; details: both partners purified
[11] = Monolith NT.115, PDZ labeled RED-NHS, acetylated 12-mer peptide serially diluted, PBS tween 20 0.05%, room temperature, 80% LED, 20% MST power, MST time 30 s, averaged, ± standard deviation, two independent experiments
[12] = either no interaction, or affinity outside the tested concentration range, read-out: Kd, outside the tested concentration range

| Molecule | Effect of P71L on affinity vs WT [1] | Kd [2, 11] | Kd [2, 12] [µM] | Kd [3, 11] | Kd [3, 12] [µM] | Change of Kd compared with SARS-CoV-2 WT [4] | Effect of P71L on affinity vs WT [5] | Kd [6] [µM] | Kd [7] [µM] | Kd [8] [µM] | Kd [9] [µM] | Kd [10] [µM] |
| --- | --- | --- | --- | --- | --- | --- | --- | --- | --- | --- | --- | --- |
| Ac-NLNSSRVLDLLV [SARS-CoV-2 P71L] | considerably reduces | not detectable in the tested concentration range; also recorded: No interaction detected | > 1000 | not detectable in the tested concentration range; also recorded: No interaction detected | > 1000 | almost six times lower | does not significantly impact the affinity |  |  |  |  |  |
| B1 |  |  |  |  |  |  |  | > 1000 | > 1000 | 22 | 47 | 133 |
